Assay results taken from PMC12472577, “Trimetazidine–Profen Hybrid Molecules: Synthesis, Chemical Characterization, and Biological Evaluation of Their Racemates” (Pharmaceuticals, 2025).
“And” between values parts separate entries of the source, which are not always exact repeats. Equal values may be shown once. Read-outs that look alike come from different tables or passages of the source.

Columns and labels:
[1] = Acute rat toxicity prediction using GUSAR software
Source text: Given the potential toxicity concerns associated with both trimetazidine and profens, including rare gastrointestinal, hepatic, renal, and central nervous system effects, we evaluated the acute toxicity of the newly synthesized trimetazidine–profen hybrid molecules.
GUSAR software was developed to generate QSAR/QSPR models using appropriate training datasets. It enables an in silico prediction of LD50 values in rats for four routes of administration: oral, intravenous, intraperitoneal, and subcutaneous.
We employed the software to perform quantitative in silico predictions of the LD50 values for the synthesized trimetazidine–profen hybrids 3a–e.

[2] = Lipophilicity as RM values by reversed-phase thin-layer chromatography (RP-TLC); assay type: physicochemical
Protocol: In this study, the lipophilicity of the synthesized trimetazidine–profen derivatives was evaluated using a practical and widely applied technique—reversed-phase thin-layer chromatography (RP-TLC)—following the methodology outlined by Pontiki and Hadjipavlou-Litina.
The lipophilicity of the trimetazidine–profen derivatives was determined following the procedure described by Pontiki and Hadjipavlou-Litina.

[3] = Hydroxyl radical scavenging activity (HRSA), Fenton reaction / 1,10-phenanthroline; assay type: biochemical; conditions: IC50 ± SD, triplicate; 60 min at 37 °C, pH 7.40
Protocol: The hydroxyl radical-scavenging activity of the samples was measured according to the method of Luo et al.. In this system, hydroxyl radicals were generated by the Fenton reaction. Hydroxyl radicals could oxidize Fe^2+ into Fe^3+, and only Fe^2+ could be combined with 1,10-phenanthroline to form a red compound (1,10-phenanthroline-Fe^2+) with a maximum absorbance at 536 nm. The concentration of the hydroxyl radical was reflected by the degree of decolorization of the reaction solution. In test tubes 1 mL of 1,10-phenanthroline solution (0.75 mM), 2.0 mL of phosphate buffer saline (0.2 M, pH 7.40), and 1 mL of the samples/standard were added and mixed homogeneously. A total of 1.0 mL of the FeSO4 solution (0.75 mM) was then pipetted into the mixture. The reaction was initiated by adding 1.0 mL H2O2 (0.03% v/v). After incubation at 37°C for 60 min in a water bath, the absorbance of the reaction mixture was measured at 536 nm against reagent blank. The reaction mixture without any antioxidant was used as the negative control, and without H2O2 was used as the blank. The hydroxyl radical scavenging activity (HRSA) was calculated by the following formula:(2) I,%(HRSA)=AS−An/Ab−An×100 where As, An, and Ab were the absorbance values determined at 536 nm of the sample, the negative control, and the blank after reaction, respectively.

human albumin = biological target: T1, human albumin (Homo sapiens, UniProt P02768); assay: Inhibition of albumin denaturation (IAD); assay type: biochemical
T1 construct: purchased BB-NCIPD Ltd., Sofia, Bulgaria
T1 sequence (P02768 25-609): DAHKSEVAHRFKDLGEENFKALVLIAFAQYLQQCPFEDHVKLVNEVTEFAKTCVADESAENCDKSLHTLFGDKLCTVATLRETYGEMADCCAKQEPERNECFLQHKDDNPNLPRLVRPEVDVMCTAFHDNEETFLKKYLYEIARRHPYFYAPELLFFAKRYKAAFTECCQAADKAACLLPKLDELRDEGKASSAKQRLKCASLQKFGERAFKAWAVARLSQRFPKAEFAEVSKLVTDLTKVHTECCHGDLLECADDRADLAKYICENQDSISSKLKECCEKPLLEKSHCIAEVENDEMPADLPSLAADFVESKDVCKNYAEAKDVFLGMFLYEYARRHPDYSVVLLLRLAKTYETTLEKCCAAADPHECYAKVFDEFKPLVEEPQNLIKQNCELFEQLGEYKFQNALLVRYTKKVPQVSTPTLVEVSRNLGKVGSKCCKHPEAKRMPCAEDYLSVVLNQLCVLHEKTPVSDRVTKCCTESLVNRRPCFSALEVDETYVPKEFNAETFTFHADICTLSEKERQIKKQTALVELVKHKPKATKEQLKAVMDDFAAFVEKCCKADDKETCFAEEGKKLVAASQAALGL
Protocol: The in vitro analysis of the anti-inflammatory activity was evaluated by measuring the inhibition of albumin denaturation (IAD). The analysis was carried out according to the method of Manolov et al. with minor modifications. The experiment was conducted using human albumin. A 1% albumin solution was prepared in distilled water at pH 7.4. Test samples and standards were initially dissolved in 1 mL of DMSO, then supplemented with 1% Tween 80 in PBS to achieve a final stock solution concentration of 1000 μg/mL. Subsequently, a series of working solutions at varying concentrations (20–500 μg/mL) in 1% Tween 80/PBS were prepared. The reaction mixture consisted of 2 mL of the test sample or standard at varying concentrations and 1 mL of 1% albumin. The mixture was incubated at 37 °C for 15 min, followed by heating at 70 °C for 15 min in a water bath. After cooling, the turbidity was measured at 660 nm using a spectrophotometer (CamSpec M508, Leeds, UK). Ibuprofen served as the standard. The experiment was conducted in triplicate. The percentage inhibition of albumin denaturation (IAD) was calculated against the control. The control sample consisted of albumin at the same concentration dissolved in distilled water.(3) %IAD=Ablank−Asample/Ablank×100

[4] = Hydrogen peroxide scavenging activity (HPSA); assay type: biochemical; conditions: IC50 ± SD, triplicate; 10 min at 37 °C, pH 7.4
Protocol: The Manolov et al. approach was used to evaluate a capacity to scavenge hydrogen peroxide. A 43 mM solution of H2O2 was prepared in a potassium phosphate buffer solution (0.2 M, pH 7.4). The analysis of the samples was carried out as follows: in test tubes, 0.6 mL H2O2 (43 mM), 1 mL sample/standard with different concentrations (20–1000 µg/mL), and 2.4 mL potassium phosphate buffer solution were mixed. The mixture was stirred and incubated in the dark for 10 min at 37 °C. Absorbance was measured at 230 nm with a spectrophotometer (CamSpec M508, Leeds, UK) against a blank solution containing the phosphate buffer and H2O2 without the sample. […] The percentage HPSA of the samples was evaluated by comparing with a blank sample, and was calculated using the following formula:(1) I,%(HPSA)=Ablank−(ATS−ACS)/Ablank×100 where Ablank is the absorbance of the blank sample, ACS is the absorbance of the control sample, and ATS is the absorbance of the test sample.

[5] = composite across IP, IV, oral, SC GUSAR predictions, lower = more toxic, read-out: geometric mean of the four LD50 values

| Compound | LD50 [1, 5] | RM ± SD [2] | HRSA IC50 [3] | IC50 (human albumin) | HPSA IC50 [4] | LD50 [1] |
| --- | --- | --- | --- | --- | --- | --- |
| COc1ccc(CN2CCN(C(=O)C(C)c3ccc4c(c3)[nH]c3ccc(Cl)cc34)CC2)c(OC)c1OC (stereo not drawn) [3e, 2-(6-chloro-9H-carbazol-2-yl)-1-(4-(2,3,4-trimethoxybenzyl)piperazin-1-yl)propan-1-one] | ~369 mg/kg | 1.55 ± 0.016 and 1.55 | 92.56 µg/mL | 225 µM | 99.75 ± 0.75 µg/mL |  |
| COc1ccc(CN2CCN(C(=O)C(C)c3ccc(-c4ccccc4)c(F)c3)CC2)c(OC)c1OC (stereo not drawn) [3d, 2-(2-fluoro-[1,1’-biphenyl]-4-yl)-1-(4-(2,3,4-trimethoxybenzyl)piperazin-1-yl)propan-1-one] | ~287 mg/kg | 1.45 ± 0.008 and 1.45 | 74.59 ± 1.02 µg/mL and 74.6 to 74.7 µg/mL | 235 µM | 135.25 ± 13.19 µg/mL |  |
| COc1ccc(CN2CCN(C(=O)C(C)c3cccc(C(=O)c4ccccc4)c3)CC2)c(OC)c1OC (stereo not drawn) [3b, 2-(3-benzoylphenyl)-1-(4-(2,3,4-trimethoxybenzyl)piperazin-1-yl)propan-1-one] | ~398 mg/kg | 1.55 ± 0.015 and 1.55 | 74.72 ± 0.41 µg/mL and 74.6 to 74.7 µg/mL | 234 µM | 93.56 ± 1.29 µg/mL |  |
| COc1ccc(CN2CCN(C(=O)C(C)c3ccc(CC(C)C)cc3)CC2)c(OC)c1OC (stereo not drawn) [3a, 2-(4-isobutylphenyl)-1-(4-(2,3,4-trimethoxybenzyl)piperazin-1-yl)propan-1-one] | ~212 mg/kg | 1.68 ± 0.021 and 1.68 | 77.98 µg/mL | 244 µM | 97.55 ± 1.21 µg/mL |  |
| CC(C)Cc1ccc(C(C)C(=O)O)cc1 (stereo not drawn) [Ibuprofen, reference compound] |  | 1.11 ± 0.01 |  |  |  |  |
| COc1ccc(CN2CCNCC2)c(OC)c1OC [compound 1, 1-[(2,3,4-trimethoxyphenyl)methyl]piperazine, reference compound] |  |  |  |  |  | ~246 mg/kg |
| COc1ccc2cc(C(C)C(=O)N3CCN(Cc4ccc(OC)c(OC)c4OC)CC3)ccc2c1 (stereo not drawn) [3c, 2-(6-methoxynaphthalen-2-yl)-1-(4-(2,3,4-trimethoxybenzyl)piperazin-1-yl)propan-1-one] | ~391 mg/kg | 1.61 ± 0.020 and 1.61 | 71.13 µg/mL | 227 µM | 93.07 ± 0.43 µg/mL |  |
